Experimental data: patent US20260098072A1, “METHODS OF STIMULATING APPETITE AND/OR INCREASING BODY WEIGHT USING NON-NATURALLY OCCURRING MELANOCORTIN RECEPTOR ANTAGONIST ANALOGS” (Endevica Bio, Inc., priority 2022, published 2026)
“And” between values parts separate entries of the source, which are not always exact repeats. Identical values can stand only once. “Also recorded” adds a separate entry of the source. Like-named read-outs stand apart in the source and are kept apart here. Positions of bridges follow the written chain, without caps; N, C: chain ends. Non-standard residues stand in square brackets, D forms with d. Residues, ends and D or L forms follow the SMILES beside them. No end group written: not given here. d2Nal = N[C@H](Cc1ccc2ccccc2c1)C(=O)O; Nle = CCCC[C@H](N)C(=O)O

Assays:
LPS model of cachexia [1] = experiment: LPS-induced cachexia assay in rats; assay type: in vivo, rat; details: for peripheral (IP) anti-cachexia activity / blood-brain barrier transport: peripheral administration
Experimental: The LPS model uses rats were maintained on a 12 h light/dark schedule with ad libitum access to food and water. Animals were handled daily for a minimum of three consecutive days to decrease non-specific handling stress. On the day of the experiment, individually housed animals received intraperitoneal injections of LPS dissolved in 0.5% low-endotoxin BSA, 0.9% saline or 0.5% BSA in 0.9% saline alone, and were returned to their home cage. The drug or control was administered (ICV, IP, or PO, depending on the type of study) 1-hour after LPS injection.
In the experiments performed in accordance with the present technology, a series of melanocortin receptor antagonist peptides were examined in a bacterial endotoxin inducing cachexia assay. For this assay, a rat is challenged with a single peripheral injection of lipopolysaccharide (LPS). LPS is a heat-stable lipo-polysaccharide, the major component of the outer membrane (capsule) of gram negative bacteria. In non-capsulated strains, it appears as a cell surface protein. LPS produces a strong immune response, including secretion of the proinflammatory cytokines Tumor Necrosis Factor α (TNFα) and interleukin-1 (IL-1). Proinflammatory cytokines are known factors that induce cachexia.
Rats are maintained on a 12-hour light/dark cycle. Animals are handled daily for a minimum of 5 consecutive days to acclimate them to the handling required for the experiment. […] On the day of the experiment, individually housed animals receive intraperitoneal (IP) injections of LPS dissolved in 0.5% low-endotoxin BSA, 0.9% saline or 0.5% BSA in 0.9% saline alone, and returned in their home cage. Melanocortin receptor antagonist peptides were administered (IP or by gavage, depending on the type of study) one hour after the LPS injection. The extent of cachexia is measured by the reduction in food intake, measured every two hours. The cachexia typically lasts only a single day. However, rats lose up to 5% of their body weight during a 12-hour light cycle, making up this loss plus food needed for normal growth during the 12-hour dark cycle. Thus, failure to eat appropriately during a single dark cycle is determinable from the animal's weight and any changes thereof.
A series of melanocortin receptor antagonist peptides were examined in a bacterial toxin inducing cachexia assay. In this assay, a rat was challenged with a single peripheral injection of lipopolysaccharide (LPS), a bacterial toxin that rapidly induces acute cachexia. The extent of cachexia was measured as a reduction in food intake, measured every two hours. The cachexia typically lasts only a single day.

human MC3R = target: T1, human MC3R (Homo sapiens, UniProt P41968); experiment: cAMP accumulation assay (HTRF), antagonist activity at MC3R; assay type: cell-based; details: for Emax / IC50: HEK293/CRE-luc/MC3R; for Emax: 0.1 nM to 1,000 nM, read-out: Max Activation %; for IC50: estimated from dose-response curve
T1 construct: expressed in transfected cells; host or cells: HEK293/CRE-luc/MC3R
T1 sequence (P41968 whole entry): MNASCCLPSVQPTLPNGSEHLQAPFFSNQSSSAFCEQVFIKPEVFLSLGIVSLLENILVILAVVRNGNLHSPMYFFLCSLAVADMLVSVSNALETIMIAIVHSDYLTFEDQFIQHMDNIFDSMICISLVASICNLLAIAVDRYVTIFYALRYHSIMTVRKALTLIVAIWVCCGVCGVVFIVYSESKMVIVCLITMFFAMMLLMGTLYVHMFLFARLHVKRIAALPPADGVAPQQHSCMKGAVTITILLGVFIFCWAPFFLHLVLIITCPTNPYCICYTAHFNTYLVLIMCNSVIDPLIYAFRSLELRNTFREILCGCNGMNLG
Experimental: (§1) The antagonist activity of exemplary non-naturally occurring melanocortin analogs (SEQ ID NOs: 3, 4, 6, 9-11, 14, 15, and 291-309) at the melanocortin 3 receptor (MC3R) and melanocortin 4 (MC4R) receptor was measured via cAMP accumulation assay, according to the following procedure.
(§2) Recombinant cell lines shown in Table 1 were stimulated with melanocortin receptor antagonists and evaluated for cyclic adenosine monophosphate (cAMP) levels as a measurement of receptor activation. cAMP levels were quantified using Homogeneous Time-Resolved Fluorescence (HTRF). The stimulation and CAMP measurement were performed sequentially. First, the compound stimulated the G-protein coupled receptor (GPCR) which then induced downstream signaling, which was measured soon after. Cell lines and stimulated receptors used are detailed in Table 1.
(§3) Twenty-seven exemplary synthetic peptides were tested for antagonist activity at the human MC3R and MC4R at concentrations ranging from 0.1 nM to 1,000 nM. After stimulation, the level of cyclic adenosine monophosphate (CAMP) in each well was quantified via Homogenous Time-Resolved Fluorescence (HTRF) as a measurement of receptor activity. Dose-response curves and estimated IC50 values were then obtained for each antagonist peptide against the MC3R and MC4R. HS024 (TFA) and was used as a positive control for the antagonist activity of MC3R (FIG. 1A) and MC4R (FIG. 1B).

human MC4R = target: T2, human MC4R (Homo sapiens, UniProt P32245); experiment: cAMP accumulation assay (HTRF), antagonist activity at MC4R; assay type: cell-based; details: for Emax: HEK293, HEK293/MC4R/CRE-GFP, 0.1 nM to 1,000 nM, read-out: Max Activation %; for IC50: HEK293/MC4R/CRE-GFP, estimated from dose-response curve
T2 construct: expressed in transfected cells; host or cells: HEK293/MC4R/CRE-GFP
T2 sequence (P32245 whole entry): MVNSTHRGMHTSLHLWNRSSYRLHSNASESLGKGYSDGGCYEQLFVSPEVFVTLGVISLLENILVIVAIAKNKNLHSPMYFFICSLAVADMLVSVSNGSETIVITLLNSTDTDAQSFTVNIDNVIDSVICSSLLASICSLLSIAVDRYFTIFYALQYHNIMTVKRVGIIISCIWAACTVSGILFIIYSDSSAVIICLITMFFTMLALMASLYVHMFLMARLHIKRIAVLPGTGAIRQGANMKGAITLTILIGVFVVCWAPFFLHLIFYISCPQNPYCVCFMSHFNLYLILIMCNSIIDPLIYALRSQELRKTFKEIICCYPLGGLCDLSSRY
Experimental: as §1, §2, §3

Lewis sarcoma rat = experiment: Reversal of cachexia-induced lethargy; assay type: in vivo; details: once-daily peripheral dosing for 48 hours (2 IP doses)
Excerpt: In animals and humans, cachexia produces “lethargy,” i.e., the aversion to activity. Grossberg et al., J. Neurosci. 31 (31): 11376-11386. […] This therapeutic effect is dependent on a stabilized non-naturally occurring melanocortin analog C-terminal extension. Video recordings characterized control animal behavior as neo-exploratory movement about the cage, i.e., repeated “sniffing” the air to presumably sample odors (e.g., neighboring animals), grooming, and intermittent bouts of eating and drinking. Caldecott-Hazard et al., J. Neurosci. 8 (6): 1951-1961 (1988).
The animal typically remains in one position for an extended period of time (>1 minute). Occasionally it will change position, assuming the new position for an extended period. The rats show no grooming behavior, evident in the appearance of their coat and eyes.

[2] = Phase 1 clinical trial (NCT05529849), safety; assay type: in vivo, human; details: 5 SAD and 3 MAD cohorts
Excerpt: Safety results of the single center, inpatient, double-blind, randomized, sequential assessment of 5 SAD (1a-5a) and 3 MAD (1b-3) cohorts dosed over 5 days TCMCB07 Phase 1 Clinical Trial (NCT05529849) have been summarized in FIG. 25. The entirety of the TCMCB07 Phase 1 Clinical Trial (NCT05529849) is incorporated herein by reference.

[3] = TCMCB07 in plasma and cerebrospinal fluid after IV administration (blood-brain barrier transport); assay type: in vivo, rat
Experimental: Urethane-anesthetized rats had polyethylene (PE)-tubing cannulas placed in their femoral artery and vein. Each rat was then placed in a small animal stereotaxic apparatus, their head fixed in the lateral plane with ear bars, and their head placed in a 45-50° downward angle by placing their nose below an adjustable tooth bar. This position placed the animal's cistern magna at the highest vertical position of its body. The dural covering of the dorsal cistern magna was exposed.
A stainless steel cannula, with one end attached to PE-tubing, was placed in a stereotaxic tower cannula holder (open end down). The free end of the PE-tubing was attached to a 100 µL gas-tight Hamilton syringe with a 28-gauge needle. The cannula was adjusted to a position that approximated the middle of the exposed cistern magna, and the cannula lowered until it touched the dura mater. […] The dura has a degree of flexibility such that the cannula can depress it before it pierces it. […]
For the experimental procedure, baseline samples of blood and CSF were taken (“O” time points), followed by the IV administration of 750 nmol/kg TCMCB07. […] Both CSF and plasma were stored at −80° C. until analyzed by (HPLC) with spectrofluoremetric monitoring at 230 nm excitation and […] (the fluorescence maximum for the Nal residue). […]

Lewis sarcoma rat model [4] = details: previously published results; cited from earlier work
LPS model of cachexia [5] = details: Sutton et al., Peptides 29 (1): 104-111 (2008); cited from earlier work
[6] = system: urethane-anesthetized rats; experiment: Cardiovascular effects (MAP, heart rate, ECG) in urethane-anesthetized rats; details: 200 nmol
Experimental: (§4) These studies were performed in urethane-anesthetized rats, since anesthesia is required for six-lead ECG monitoring. […] Initial selection of doses was guided by FDA exploratory IND studies with a recommendation for at least a 100-fold excess of the human dose.

Lewis sarcoma rat model [7] = experiment: Lewis sarcoma rat model of cancer cachexia; assay type: in vivo; details: 2 nmol once per day
Experimental: This sarcoma is an aggressive form of cancer that produces significant cachexia. Popp et al., Cancer 49 (6): 1212-1220 (1982). In the protocol, “treatment” began 8-days after tumor implantation, with a significant decrease in food intake from baseline. Body composition was determined by NMR prior to tumor implantation, and on the final day of the experiment after tumor resection, by ECHO MRI (NMR). Tumor implantation produces cachexia on or about the sixth day. The non-naturally occurring melanocortin analog or saline was administered after day 8 and continued through day 12.

[8] = system: urethane-anesthetized rats; details: rat, in vivo
Experimental: as §4

## CCCC[C@H](NC(C)=O)C(=O)N[C@H]1CC(=O)NCCCC[C@@H](C(=O)N2CCC[C@@H]2C(=O)N[C@@H](C(N)=O)C(C)C)NC(=O)[C@H](Cc2c[nH]c3ccccc23)NC(=O)[C@H](CCCNC(=N)N)NC(=O)[C@@H](Cc2ccc3ccccc3c2)NC(=O)[C@@H]2CCCN2C1=O [TCMCB02, Ac-Nle-c[Asp-Pro-dNal(2′)-Arg-Trp-Lys]-dPro-dVal-NH2] (Ac-[Nle]DP[d2Nal]RWK[dP][dV]-NH2; lactam 2-7)
LPS model of cachexia [1]; 2 mg/kg, IP
  body weight gain overnight: ~5%
LPS model of cachexia [1]; 2 mg/kg, IP, baseline = previous 4-day average
  food intake, 12-hours overnight: 65 % of baseline
LPS model of cachexia [1]
  anti-cachectic activity after ICV administration: equivalent to TCMCB01
  peripheral (IP) anti-cachexia activity / blood-brain barrier transport: has peripheral activity, significantly reversing LPS-induced cachexia; also recorded: produced anti-cachexia following peripheral administration
LPS model of cachexia [1]; gavage (intra-gastric)
  oral activity / gastrointestinal transport: did not have oral activity; also recorded: had no oral activity
LPS model of cachexia [1]; rat, in vivo
  anti-cachectic activity relative to the parent compound: 10 fold
Human MC3R
  Emax: 101%
  IC50: < 10 µM
Human MC3R; dose-response fit, MC3R
  Hill Coefficient: 1.03
  Top (%): 120.45%
Human MC4R
  Emax: 120%
  IC50: < 10 µM
Human MC4R; dose-response fit, MC4R
  Hill Coefficient: 0.69
  Top (%): 127.47%
Lewis sarcoma rat
  behavior (lethargy): restored “normal” behavior to rats

## CCCC[C@H](NC(C)=O)C(=O)N[C@H]1CC(=O)NCCCC[C@@H](C(=O)N[C@@H](C(=O)N2CCC[C@@H]2C(N)=O)C(C)C)NC(=O)[C@H](Cc2c[nH]c3ccccc23)NC(=O)[C@H](CCCN=C(N)N)NC(=O)[C@@H](Cc2ccc3ccccc3c2)NC(=O)[C@@H]2CCCN2C1=O [TCMCB07, Ac-Nle-c[Asp-Pro-dNal(2′)-Arg-Trp-Lys]-dVal-dPro-NH2] (Ac-[Nle]DP[d2Nal]RWK[dV][dP]-NH2; lactam 2-7)
Human MC3R
  Emax: 112%
  IC50: < 10 µM and 0.0434 µM
[2]
  CAEs: zero
  clinically relevant abnormal laboratory test results: zero
  clinically relevant abnormal physical exams: zero
  drug-related SAEs: zero
  patients having abnormal ECGs: zero
Human MC4R
  Emax: 118%
  IC50: < 10 µM and 0.0269 µM
[3]; IV 750 nmol/kg, HPLC effluent by mass spectrometry
  presence in CSF / transport through the blood-brain-barrier: confirmed the presence of TCMCB07 in CSF; also recorded: direct physical evidence of TCMCB07 transport through the blood-brain-barrier
[3]; rat, plasma, 2 minutes post-intravenous administration, 750 nmol/kg, read-out: Concentration in plasma
  level at time molar at 2 min: 7 µM

## AGRP: natural melanocortin system inhibitor; naturally occurring melanocortin antagonist protein (SSRRCVRLHESCLGQQVPCCDPCATCYCRFFNAFCYCRKLGTAMNPCSRT; ends and bridges not checked; cysteine pairing not given here; UniProt O00253 83-132, looked up)
Lewis sarcoma rat model [4]
  reversal of feeding / cachexia-anorexia syndrome in cachexia models: 100%

## Ac-NLe-c[Asp-Pro-DNal(2′)-Arg-Trp-Lys]-Pro-Val-NH2 (Ac-[Nle]DP[d2Nal]RWKPV-NH2; lactam 2-7) [PG-932]
LPS model of cachexia [5]
  peripheral activity: active peripherally
[6]
  Duration: 4 ± 3 min
  Peak Heart Rate Response (BPM): 13 ± 09 BPM
  Peak MAP Response (Δ mm Hg): 5 ± 3 mm Hg

## Ac-Nle-c[Asp-His-DNal(2′)-Arg-Trp-Lys]-NH2 [SHU9119]
Lewis sarcoma rat model [7]
  reversal of anorexia: about 70 % of that observed with AGRP
[8]
  Peak Heart Rate Response (BPM): 16 ± 5/3 ± 14 BPM
  Peak MAP Response (Δ mm Hg): 16 ± 5/3 ± 14 mm Hg

## Ac-Nle-c[Asp-Pro-DNal(2′)-Arg-Trp-Lys]-β^3Pro-β^2Val-NH2 [TCMCB05]
LPS model of cachexia [1]; 0.2 mg/kg intraperitoneally
  food intake and body weight, 24-hours: had stimulated appetites and gained weight
LPS model of cachexia [1]
  anti-cachectic activity after ICV administration: molar activity equivalent to TCMCB02
  peripheral (IP) anti-cachexia activity / blood-brain barrier transport: had IP anti-cachexia activity; also recorded: had peripheral anti-cachexia activity
LPS model of cachexia [1]; ICV-administration
  molar activity relative to TCMCB02: 10 fold
Lewis sarcoma rat
  behavior (lethargy): restored “normal” behavior to rats
